Organism: Rattus norvegicus
Assay: Open TG-GATES - Regimen: Single
Type: toxicity, organism-based, Sprague-Dawley
Design: regimen Single, gender Male, age 6 weeks
Settings: in vivo, po, 10 mg/kg, route gavage, dose level Low; for gamma-GTP / ALP / ALT / AST / BUN / CRE / Ca / DBIL / GLC / IP / K / LDH / Na / PL / RALB / TBIL / TC / TG / TP: tissue Plasma; for KIDNEY_L / KIDNEY_R / KIDNEY_TOTAL: tissue Kidney; for LIVER: tissue Liver

`CSc1ccc2c(c1)N(CCC1CCCCN1C)c1ccccc1S2` (configuration not stated) [THIORIDAZINE] gave a gamma-GTP (6 h) of 3.2 IU/L, a TERMINAL_BW (9 h) of 213.3 g and an APTT (9 h, tissue Blood) of 16.6 s. The Bas (9 h, tissue Blood) was 0%, the Eos (9 h, tissue Blood) was 1% and the Fbg (9 h, tissue Blood) was 209.6 mg/dL. For the same compound, the Hb (9 h, tissue Blood) was 12.7 g/dL, the Ht (9 h, tissue Blood) was 38.5% and the Lym (9 h, tissue Blood) was 72.4%. The MCH (9 h, tissue Blood) was 21.3 pg, the MCHC (9 h, tissue Blood) was 33.1% and the MCV (9 h, tissue Blood) was 64.5 fL. It also gave a Mono (9 h, tissue Blood) of 6.4%, a Neu (9 h, tissue Blood) of 20.6% and a PT (9 h, tissue Blood) of 12.3 s. It also gave a Plat (9 h, tissue Blood) of 105.4 x10_4/uL, an RBC (9 h, tissue Blood) of 598.2 x10_4/ul and a Ret (9 h, tissue Blood) of 8.1%. The WBC (9 h, tissue Blood) was 80.7 x10_2/uL, the KIDNEY_L (9 h) was 1 g and the KIDNEY_R (9 h) was 1 g. For the same compound, the KIDNEY_TOTAL (9 h) was 2.1 g, the LIVER (9 h) was 9.6 g and the ALP (9 h) was 749.8 IU/L. The ALT (9 h) was 29.4 IU/L, the AST (9 h) was 64.4 IU/L and the BUN (9 h) was 11.2 mg/dL. The CRE (9 h) was 0.6 mg/dL, the Ca (9 h) was 10.8 mg/dL and the DBIL (9 h) was 0.034 mg/dL. The GLC (9 h) was 195.4 mg/dL, the IP (9 h) was 10.7 mg/dL and the K (9 h) was 5.1 meq/L. It also gave an LDH (9 h) of 66.8 IU/L, a Na (9 h) of 140 meq/L and a PL (9 h) of 142.2 mg/dL. The RALB (9 h) was 3.8 g/dL, the TBIL (9 h) was 0.4 mg/dL and the TC (9 h) was 77.4 mg/dL. It also gave a TG (9 h) of 31.4 mg/dL, a TP (9 h) of 5.3 g/dL and a gamma-GTP (9 h) of 1.6 IU/L. For the same compound, the TERMINAL_BW (24 h) was 232.6 g, the APTT (24 h, tissue Blood) was 16.5 s and the Bas (24 h, tissue Blood) was 0%. It also gave an Eos (24 h, tissue Blood) of 1%, a Fbg (24 h, tissue Blood) of 215.4 mg/dL and a Hb (24 h, tissue Blood) of 13 g/dL. The Ht (24 h, tissue Blood) was 39.1%, the Lym (24 h, tissue Blood) was 80.4% and the MCH (24 h, tissue Blood) was 21.8 pg. It also gave an MCHC (24 h, tissue Blood) of 33.3%, an MCV (24 h, tissue Blood) of 65.3 fL and a Mono (24 h, tissue Blood) of 6.6%. For the same compound, the Neu (24 h, tissue Blood) was 11.8%, the PT (24 h, tissue Blood) was 12.2 s and the RBC (24 h, tissue Blood) was 599.2 x10_4/ul. For the same compound, the Ret (24 h, tissue Blood) was 8.2%, the WBC (24 h, tissue Blood) was 132.3 x10_2/uL and the KIDNEY_L (24 h) was 1 g. It also gave a KIDNEY_R (24 h) of 1 g, a KIDNEY_TOTAL (24 h) of 2 g and an LIVER (24 h) of 11.9 g. For the same compound, the ALP (24 h) was 799.2 IU/L, the ALT (24 h) was 39.6 IU/L and the AST (24 h) was 68.6 IU/L. The BUN (24 h) was 19 mg/dL, the CRE (24 h) was 0.5 mg/dL and the Ca (24 h) was 11.3 mg/dL. It also gave a DBIL (24 h) of 0.074 mg/dL, a GLC (24 h) of 193.6 mg/dL and an IP (24 h) of 8.7 mg/dL. For the same compound, the K (24 h) was 4.9 meq/L, the LDH (24 h) was 77.4 IU/L and the Na (24 h) was 138.2 meq/L. It also gave a PL (24 h) of 154.8 mg/dL, an RALB (24 h) of 4 g/dL and a TBIL (24 h) of 0.4 mg/dL. It also gave a TC (24 h) of 81 mg/dL, a TG (24 h) of 116.8 mg/dL and a TP (24 h) of 5.8 g/dL. It also gave a gamma-GTP (24 h) of 1.4 IU/L.

— ChEMBL document CHEMBL3885861, “Open TG-GATES”
